From ChEMBL document CHEMBL1125324, “Development of a novel class of cyclic hexapeptide oxytocin antagonists based on a natural product” (J Med Chem, 1992)
Converted amounts (≈) assume the structure as drawn. Where a SMILES comes first, the peptide text is derived from it. [ ]: non-standard residue; d: D form. d2Nal = N[C@H](Cc1ccc2ccccc2c1)C(=O)O; dNMeF = CN[C@H](Cc1ccccc1)C(=O)O; Pip = O=C(O)[C@@H]1CCCCN1; dPip = O=C(O)[C@H]1CCCCN1; NMeA = CN[C@@H](C)C(=O)O; dNMeA = CN[C@H](C)C(=O)O

Key:
[1] = target: Vasopressin V2 receptor (Rattus norvegicus) (UniProt Q00788); experiment: Displacement of [3H]arginine vasopressin from rat kidney medullary (AVP-V2 site) at 10 uM; format: tissue-based
[2] = target: Vasopressin V1a receptor (Rattus norvegicus) (UniProt P30560); experiment: Displacement of [3H]arginine vasopressin from rat liver (AVP-V1a site) at 10 uM
Oxytocin receptor [3] = target: T1, Oxytocin receptor (Rattus norvegicus, UniProt P70536); experiment: Compound was evaluated for OT receptor affinity by displacement of [3H]OT from binding sites in uterine tissue taken from pregnant rats
T1 sequence (P70536 whole entry): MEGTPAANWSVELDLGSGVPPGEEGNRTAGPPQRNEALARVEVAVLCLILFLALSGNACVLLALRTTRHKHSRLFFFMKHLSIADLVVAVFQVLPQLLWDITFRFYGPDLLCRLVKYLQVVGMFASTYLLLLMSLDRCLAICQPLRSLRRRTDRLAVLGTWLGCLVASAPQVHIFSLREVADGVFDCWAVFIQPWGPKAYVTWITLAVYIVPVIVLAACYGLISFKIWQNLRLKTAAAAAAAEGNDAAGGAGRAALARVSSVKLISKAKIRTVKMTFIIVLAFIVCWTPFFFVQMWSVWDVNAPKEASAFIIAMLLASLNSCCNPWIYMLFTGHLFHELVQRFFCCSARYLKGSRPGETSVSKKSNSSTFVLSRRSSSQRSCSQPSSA

Oxytocin receptor [4] = target: T1, Oxytocin receptor; experiment: Concentration required to displace 50% of [3H]oxytocin from rat uterine receptor.
Rattus norvegicus [5] = experiment: Dose required for 50% reduction of the contractile response of the uterus to OT (1 ug/kg, iv bolus) in DES-pretreated rats; format: functional
Rattus norvegicus [6] = organism: Rattus norvegicus; experiment: Compound was evaluated for the inhibition of accumulation of total [3H]inositol phosphates stimulated by exposure of the tissue to OT; format: functional
Rattus norvegicus [7] = organism: Rattus norvegicus; experiment: pA2 value by AVP (V1a) stimulated contraction of the isolated rat tail artery; format: functional; details: read-out: pA2 (converted)
Oxytocin receptor [8] = target: T2, Oxytocin receptor (Homo sapiens, UniProt P30559); experiment: Compound was evaluated for OT receptor affinity by displacement of [3H]OT from binding sites in uterine tissue taken from nonlabor pregnant women
T2 sequence (P30559 whole entry): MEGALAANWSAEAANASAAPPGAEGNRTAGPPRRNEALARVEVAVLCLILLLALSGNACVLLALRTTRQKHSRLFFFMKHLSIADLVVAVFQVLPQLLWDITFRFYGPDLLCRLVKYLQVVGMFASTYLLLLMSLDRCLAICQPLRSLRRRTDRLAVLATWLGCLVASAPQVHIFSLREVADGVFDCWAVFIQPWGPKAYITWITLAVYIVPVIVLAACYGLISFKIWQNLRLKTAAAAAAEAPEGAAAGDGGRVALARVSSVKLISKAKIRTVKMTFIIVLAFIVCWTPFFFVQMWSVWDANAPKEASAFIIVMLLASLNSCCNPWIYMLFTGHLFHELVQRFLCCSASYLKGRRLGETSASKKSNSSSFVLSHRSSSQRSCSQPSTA

Vasopressin V2 receptor [9] = target: T3, Vasopressin V2 receptor (Rattus norvegicus, UniProt Q00788); experiment: Ability to inhibit AVP stimulation of adenylate cyclase activity in the rat kidney medulla (AVP-V2) receptor
Vasopressin V2 receptor [10] = target: T3, Vasopressin V2 receptor; experiment: Inhibition of [3H]arginine vasopressin binding to AVP-V2 site in rat kidney medulla.; format: tissue-based
Vasopressin V1a receptor = Vasopressin V1a receptor (Rattus norvegicus, UniProt P30560); experiment: Concentration required to displace 50% of [3H]arginine vasopressin from rat liver arginine vasopressin 1A (AVP-V1a) site.
[11] = Aqueous solubility was determined; format: physicochemical
Rattus norvegicus [12] = organism: Rattus norvegicus; experiment: pA2 value was determined from regression analysis of log (dose ratio-1) vs -log [antagonist] (isolated uterus from DES-pretreated rats); format: functional; details: read-out: pA2 (converted)
Vasopressin V2 receptor [13] = target: T3, Vasopressin V2 receptor; experiment: Concentration required to displace 50% of [3H]arginine vasopressin from rat kidney medullary (AVP-[…] site)
[14] = target: T4, Oxytocin receptor (Rattus norvegicus) (UniProt P70536); experiment: Inhibition of displacement of [3H]oxytocin from rat uterine receptor at 10 uM
T4 sequence (whole entry): T1 sequence (P70536 whole entry)

Vasopressin V2 receptor (Rattus norvegicus), sequence (Q00788 whole entry): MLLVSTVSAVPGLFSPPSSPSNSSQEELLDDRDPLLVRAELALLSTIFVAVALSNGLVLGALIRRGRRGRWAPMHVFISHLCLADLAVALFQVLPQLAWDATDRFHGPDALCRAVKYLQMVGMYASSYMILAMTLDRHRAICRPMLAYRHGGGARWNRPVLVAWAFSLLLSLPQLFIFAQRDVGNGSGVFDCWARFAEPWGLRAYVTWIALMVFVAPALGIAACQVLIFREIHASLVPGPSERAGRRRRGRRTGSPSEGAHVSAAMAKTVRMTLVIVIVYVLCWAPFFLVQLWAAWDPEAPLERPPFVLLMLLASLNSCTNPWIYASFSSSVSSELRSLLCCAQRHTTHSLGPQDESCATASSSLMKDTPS
T3 sequence (Q00788 whole entry): as above
Vasopressin V1a receptor, sequence (P30560 whole entry): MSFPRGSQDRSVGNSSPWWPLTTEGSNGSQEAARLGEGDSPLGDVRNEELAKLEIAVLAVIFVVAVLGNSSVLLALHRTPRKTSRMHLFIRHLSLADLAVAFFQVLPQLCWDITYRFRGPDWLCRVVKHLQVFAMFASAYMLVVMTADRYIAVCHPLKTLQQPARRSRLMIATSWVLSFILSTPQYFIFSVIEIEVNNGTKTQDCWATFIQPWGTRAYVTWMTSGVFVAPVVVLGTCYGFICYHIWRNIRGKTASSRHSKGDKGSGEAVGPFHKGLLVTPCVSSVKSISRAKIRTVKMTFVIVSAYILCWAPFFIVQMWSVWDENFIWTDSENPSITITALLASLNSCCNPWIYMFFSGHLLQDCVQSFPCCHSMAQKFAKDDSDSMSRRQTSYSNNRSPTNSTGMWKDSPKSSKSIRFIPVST
Vasopressin V1a receptor (Rattus norvegicus), sequence (P30560 whole entry, looked up): as the sequence (P30560 whole entry) above

| SMILES | inhibition [1] | inhibition [2] | IC50 (Oxytocin receptor [4]) | also measured |
| --- | --- | --- | --- | --- |
| C[C@@H]1NC(=O)[C@@H](Cc2ccccc2)NC(=O)[C@@H]2CCCN2C(=O)[C@H](Cc2ccccc2)N(C)C(=O)[C@@H]2CCCCN2C(=O)[C@H]2CCCCN2C1=O | 2% | 3% | – | – |
| CC[C@H](C)[C@@H]1NC(=O)[C@@H](Cc2ccccc2)NC(=O)[C@@H]2CCCN2C(=O)[C@@H](Cc2ccccc2)N(C)C(=O)[C@H](Cc2c[nH]cn2)NC(=O)[C@H]2CCCCN2C1=O | 65% | 66% | – | – |
| CC[C@H](C)[C@@H]1NC(=O)[C@@H](Cc2ccc3ccccc3c2)NC(=O)[C@@H]2CCCN2C(=O)[C@@H](Cc2c[nH]cn2)NC(=O)[C@@H]2CCCCN2C(=O)[C@H]2CCCCN2C1=O (cyclo(I[dPip][Pip][dH]P[d2Nal])) | – | – | 2.2 nM | Ki (Oxytocin receptor [3]): 0.7 nM; AD50 (Rattus norvegicus [5]): 0.102 mg/kg; IC50 (Rattus norvegicus [6]): 40 nM; Kb (Rattus norvegicus [7]): 282 nM; Ki (Oxytocin receptor [8]): 5.1 nM; IC50 (Vasopressin V2 receptor [9]): 810 nM; IC50 (Vasopressin V2 receptor [10]): 910 nM; IC50 (Vasopressin V1a receptor): 2600 nM; solubility [11]: 1500 µg/mL (≈ 1960 µM); Kb (Rattus norvegicus [12]): 2.95 nM |
| CC[C@H](C)[C@@H]1NC(=O)[C@@H](Cc2ccccc2)NC(=O)[C@@H]2CCCN2C(=O)[C@@H](Cc2ccccc2)N(C)C(=O)[C@H](CCCN)NC(=O)[C@H]2CCC=NN2C1=O | – | – | – | AD50 (Rattus norvegicus [5]): 0.0716 mg/kg; IC50 (Vasopressin V1a receptor): 800 nM; solubility [11]: 1500 µg/mL (≈ 2020 µM); Kb (Rattus norvegicus [12]): 3.39 nM |
| CC[C@H](C)[C@@H]1NC(=O)[C@@H](Cc2ccccc2)NC(=O)[C@@H]2CCCN2C(=O)[C@@H](C)N(C)C(=O)[C@@H]2CCCCN2C(=O)[C@H]2CCCCN2C1=O (cyclo(I[dPip][Pip][dNMeA]P[dF])) | 12% | 20% | 1200 nM | – |
| CC[C@H](C)[C@@H]1NC(=O)[C@@H](Cc2c[nH]c3ccccc23)NC(=O)[C@@H]2CCCN2C(=O)[C@@H](Cc2ccccc2)N(C)C(=O)[C@H](CCCCN)NC(=O)[C@H]2CCCCN2C1=O (cyclo(I[dPip]K[dNMeF]P[dW])) | – | – | – | IC50 (Vasopressin V2 receptor [13]): 410 nM; IC50 (Vasopressin V1a receptor): 1600 nM |
| CC[C@H](C)[C@@H]1NC(=O)[C@@H](Cc2ccccc2)NC(=O)[C@@H]2CCCN2C(=O)[C@@H](Cc2ccccc2)N(C)C(=O)[C@H](CC(=O)O)NC(=O)[C@H]2CCCCN2C1=O (cyclo(D[dNMeF]P[dF]I[dPip])) | 12% | 0% | 1500 nM | – |
| CC[C@H](C)[C@@H]1NC(=O)[C@@H](Cc2ccccc2)NC(=O)[C@@H]2CCCN2C(=O)[C@@H](Cc2ccccc2)N(C)C(=O)[C@@H]2CCCCN2C(=O)[C@H]2CCCN2C1=O (cyclo(I[dP][Pip][dNMeF]P[dF])) | 43% | 23% | 540 nM | – |
| CC[C@H](C)[C@@H]1NC(=O)[C@@H](Cc2ccccc2)NC(=O)[C@@H]2CCCN2C(=O)[C@@H](Cc2ccccc2)N(C)C(=O)[C@@H]2CCCN2C(=O)[C@H]2CCCCN2C1=O | 39% | 33% | 670 nM | – |
| CC[C@H](C)[C@@H]1NC(=O)[C@H](C)NC(=O)[C@@H]2CCCN2C(=O)[C@@H](Cc2ccccc2)N(C)C(=O)[C@@H]2CCCCN2C(=O)[C@H]2CCCCN2C1=O | 4% | 0% | – | inhibition [14]: 0% |
| CC[C@H](C)[C@@H]1NC(=O)[C@@H](Cc2ccccc2)NC(=O)[C@H](C)N(C)C(=O)[C@@H](Cc2ccccc2)N(C)C(=O)[C@@H]2CCCCN2C(=O)[C@H]2CCCCN2C1=O (cyclo(I[dPip][Pip][dNMeF][NMeA][dF])) | 37% | 34% | 930 nM | – |
| CC[C@H](C)[C@@H]1NC(=O)[C@@H](Cc2c[nH]c3ccccc23)NC(=O)[C@@H]2CCCN2C(=O)[C@@H](Cc2c[nH]cn2)NC(=O)[C@@H]2CCCCN2C(=O)[C@H]2CCCCN2C1=O (cyclo(I[dPip][Pip][dH]P[dW])) | – | – | – | AD50 (Rattus norvegicus [5]): 0.0013 mg/kg |
